Test results taken from ChEMBL document CHEMBL2021812, “Aryltriflates as a Neglected Moiety in Medicinal Chemistry: A Case Study from a Lead Optimization of CXCL8 Inhibitors” (ACS Med Chem Lett, 2011).
Blank lines part the entries; values can stand above or below the compound they belong to.

What was measured:
[1] = molecular target: T1, C-X-C chemokine receptor type 2 (Homo sapiens) (UniProt P25025); assay: Inhibition of CXCR2 in human polymorphonucleate cells assessed as inhibition of CXCL1-induced chemotaxis at 10^-8 M incubated for 15 mins prior to CXCL1-induction measured after 45 mins
T1 sequence (whole entry): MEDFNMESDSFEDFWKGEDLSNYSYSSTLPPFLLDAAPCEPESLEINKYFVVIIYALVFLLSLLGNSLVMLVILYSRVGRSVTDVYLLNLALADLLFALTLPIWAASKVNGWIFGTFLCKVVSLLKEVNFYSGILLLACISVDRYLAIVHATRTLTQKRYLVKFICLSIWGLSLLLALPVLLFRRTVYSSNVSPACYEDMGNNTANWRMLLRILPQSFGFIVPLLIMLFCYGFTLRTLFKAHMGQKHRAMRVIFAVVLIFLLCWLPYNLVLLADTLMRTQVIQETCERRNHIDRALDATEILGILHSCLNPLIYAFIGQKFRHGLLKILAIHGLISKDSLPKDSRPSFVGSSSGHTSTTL

[2] = molecular target: Interleukin-8 receptors, CXCR1/CXCR2 (Homo sapiens) (UniProt P25025+P25024); assay: Inhibition of CXCR1/2 in human polymorphonucleate cells assessed as inhibition of CXCL8-induced chemotaxis at 10^-8 M incubated for 15 mins prior to CXCL8-induction measured after 45 mins
[3] = Chemical stability of the compound assessed as compound remaining at pH 7.4 after 2 hrs; type: physicochemical; conditions: buffer, read-out: Stability
[4] = Metabolic stability in rat plasma assessed as compound remaining at 1 uM after 1 hr; type: ADME, cell-free; conditions: read-out: Stability
[5] = Half life in iv dosed rat plasma; type: ADME, organism-based
[6] = Metabolic stability in rat liver microsomes assessed as compound remaining at 1 uM preincubated for 10 mins measured after 30 mins; type: ADME, Microsome; conditions: read-out: Stability
CYP2C19 = CYP2C19 (Homo sapiens, UniProt P33261); assay: Inhibition of CYP2C19 using DBF as substrate at 10 uM; type: ADME; conditions: probe DBF
Chain of CYP2C19 (P33261 whole entry): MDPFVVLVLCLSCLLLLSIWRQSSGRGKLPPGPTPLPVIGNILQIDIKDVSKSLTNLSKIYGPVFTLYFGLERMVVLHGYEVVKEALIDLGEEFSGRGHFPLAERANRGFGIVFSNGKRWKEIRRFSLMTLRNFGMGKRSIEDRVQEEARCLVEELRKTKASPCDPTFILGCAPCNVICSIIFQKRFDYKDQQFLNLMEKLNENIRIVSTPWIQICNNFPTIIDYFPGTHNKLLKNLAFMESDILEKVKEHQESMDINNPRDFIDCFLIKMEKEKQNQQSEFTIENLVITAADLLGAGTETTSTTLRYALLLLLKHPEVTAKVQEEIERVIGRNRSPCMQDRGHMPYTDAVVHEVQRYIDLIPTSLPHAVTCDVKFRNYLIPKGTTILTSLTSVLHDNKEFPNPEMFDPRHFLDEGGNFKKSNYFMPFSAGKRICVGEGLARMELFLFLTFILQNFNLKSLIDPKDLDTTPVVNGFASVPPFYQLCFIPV

CYP2C9 = CYP2C9 (Homo sapiens, UniProt P11712); assay: Inhibition of CYP2C9 using 7MFC as substrate at 10 uM; type: ADME; conditions: probe 7MFC
Chain of CYP2C9 (P11712 whole entry): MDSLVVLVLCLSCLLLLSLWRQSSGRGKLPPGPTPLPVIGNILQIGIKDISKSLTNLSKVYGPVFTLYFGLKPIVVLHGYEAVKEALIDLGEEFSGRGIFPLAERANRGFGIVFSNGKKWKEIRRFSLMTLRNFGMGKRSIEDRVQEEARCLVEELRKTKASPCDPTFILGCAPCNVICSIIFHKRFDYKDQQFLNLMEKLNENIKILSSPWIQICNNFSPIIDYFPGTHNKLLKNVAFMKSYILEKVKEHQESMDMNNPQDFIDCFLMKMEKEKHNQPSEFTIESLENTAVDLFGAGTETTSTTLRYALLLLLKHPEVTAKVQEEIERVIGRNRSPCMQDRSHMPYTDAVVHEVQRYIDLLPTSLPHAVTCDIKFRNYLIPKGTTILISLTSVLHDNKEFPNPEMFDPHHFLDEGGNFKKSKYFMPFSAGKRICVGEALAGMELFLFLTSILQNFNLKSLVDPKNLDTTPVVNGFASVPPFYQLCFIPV

CYP1A2 = molecular target: T2, CYP1A2 (Homo sapiens, UniProt P05177); assay: Inhibition of CYP1A2 using CEC as substrate at 10 uM; type: ADME; conditions: probe CEC
T2 sequence (P05177 whole entry): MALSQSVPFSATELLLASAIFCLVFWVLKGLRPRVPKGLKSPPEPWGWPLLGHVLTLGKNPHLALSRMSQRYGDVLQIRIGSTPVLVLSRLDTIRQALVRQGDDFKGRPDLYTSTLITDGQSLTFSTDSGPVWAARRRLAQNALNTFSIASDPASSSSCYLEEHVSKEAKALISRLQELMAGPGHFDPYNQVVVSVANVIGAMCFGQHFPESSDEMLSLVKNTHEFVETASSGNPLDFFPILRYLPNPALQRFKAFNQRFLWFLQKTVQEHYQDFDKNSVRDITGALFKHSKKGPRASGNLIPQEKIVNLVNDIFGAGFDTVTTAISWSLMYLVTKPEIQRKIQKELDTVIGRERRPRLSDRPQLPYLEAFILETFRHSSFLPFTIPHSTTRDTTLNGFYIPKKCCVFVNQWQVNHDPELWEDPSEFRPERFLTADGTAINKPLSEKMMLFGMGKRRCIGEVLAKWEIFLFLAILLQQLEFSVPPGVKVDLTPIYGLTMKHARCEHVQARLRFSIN

CYP2D6 = CYP2D6 (Homo sapiens, UniProt P10635); assay: Inhibition of CYP2D6 using AMMC as substrate at 10 uM; type: ADME; conditions: probe AMMC
Chain of CYP2D6 (P10635 whole entry): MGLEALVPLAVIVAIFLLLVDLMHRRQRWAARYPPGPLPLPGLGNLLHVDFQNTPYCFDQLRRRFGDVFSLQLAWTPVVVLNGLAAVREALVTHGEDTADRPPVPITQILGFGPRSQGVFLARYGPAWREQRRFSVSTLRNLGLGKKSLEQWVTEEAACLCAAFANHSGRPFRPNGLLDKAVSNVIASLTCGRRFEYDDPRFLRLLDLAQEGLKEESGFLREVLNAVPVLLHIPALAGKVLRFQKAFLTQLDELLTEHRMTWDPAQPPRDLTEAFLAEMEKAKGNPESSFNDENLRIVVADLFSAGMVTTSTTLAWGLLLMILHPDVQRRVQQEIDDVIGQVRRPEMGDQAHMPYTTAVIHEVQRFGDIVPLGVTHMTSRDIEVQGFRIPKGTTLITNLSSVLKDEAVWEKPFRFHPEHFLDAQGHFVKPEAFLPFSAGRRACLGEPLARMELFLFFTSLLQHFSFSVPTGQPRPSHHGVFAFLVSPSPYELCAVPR

CYP3A4 = CYP3A4 (Homo sapiens, UniProt P08684); assay: Inhibition of CYP3A4 using BFC as substrate at 10 uM; type: ADME; conditions: probe BFC
Chain of CYP3A4 (P08684 whole entry): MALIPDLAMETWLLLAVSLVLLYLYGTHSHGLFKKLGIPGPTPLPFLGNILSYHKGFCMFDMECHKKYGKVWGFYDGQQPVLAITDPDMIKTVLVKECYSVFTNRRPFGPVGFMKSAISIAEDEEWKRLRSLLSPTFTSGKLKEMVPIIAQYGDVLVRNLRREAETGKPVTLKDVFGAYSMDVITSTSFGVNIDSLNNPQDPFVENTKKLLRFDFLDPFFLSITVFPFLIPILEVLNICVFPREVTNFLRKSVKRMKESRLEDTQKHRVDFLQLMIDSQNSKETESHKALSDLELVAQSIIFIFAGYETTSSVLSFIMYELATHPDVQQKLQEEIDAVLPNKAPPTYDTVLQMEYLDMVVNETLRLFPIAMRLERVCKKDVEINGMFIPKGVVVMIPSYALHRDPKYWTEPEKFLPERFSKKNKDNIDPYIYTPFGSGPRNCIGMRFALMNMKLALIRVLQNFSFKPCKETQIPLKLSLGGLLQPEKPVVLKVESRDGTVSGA

Hepatocyte [7] = assay: Metabolic stability in rat hepatocytes assessed as compound remaining at 10 uM after 15 mins; type: ADME, cell-based; conditions: 0.25 h
Hepatocyte [8] = assay: Drug metabolism in rat hepatocytes assessed as (S)-2-(4-(trifluoromethylsulfonyloxy)phenyl)propanoic acid level at 10 uM after 120 mins; type: ADME, cell-based; conditions: 2 h
[9] = Chemical stability of the compound assessed as compound remaining at pH 3.5 after 2 hrs; type: physicochemical; conditions: buffer, read-out: Stability
Hepatocyte [10] = assay: Drug metabolism in human hepatocytes assessed as (S)-2-(4-(trifluoromethylsulfonyloxy)phenyl)propanoic acid level at 10 uM after 30 mins; type: ADME, cell-based; conditions: 0.5 h
Hepatocyte [11] = assay: Drug metabolism in human hepatocytes assessed as (S)-2-(4-(trifluoromethylsulfonyloxy)phenyl)propanoic acid level at 10 uM after 15 mins; type: ADME, cell-based; conditions: 0.25 h
Hepatocyte [12] = assay: Drug metabolism in human hepatocytes assessed as (S)-2-(4-(trifluoromethylsulfonyloxy)phenyl)propanoic acid level at 10 uM after 60 mins; type: ADME, cell-based; conditions: 1 h
Hepatocyte [13] = assay: Metabolic stability in rat hepatocytes assessed as compound remaining at 10 uM after 60 mins; type: ADME, cell-based; conditions: 1 h
Hepatocyte [14] = assay: Metabolic stability in human hepatocytes assessed as compound remaining at 10 uM after 120 mins; type: ADME, cell-based; conditions: 2 h
Hepatocyte [15] = assay: Metabolic stability in rat hepatocytes assessed as compound remaining at 10 uM after 120 mins; type: ADME, cell-based; conditions: 2 h
Hepatocyte [16] = assay: Drug metabolism in human hepatocytes assessed as (S)-2-(4-(trifluoromethylsulfonyloxy)phenyl)propanoic acid level at 10 uM after 90 mins; type: ADME, cell-based; conditions: 1.5 h
Hepatocyte [17] = assay: Metabolic stability in human hepatocytes assessed as compound remaining at 10 uM after 30 mins; type: ADME, cell-based; conditions: 0.5 h
[18] = Dissociation constant, pKa of the compound; type: physicochemical
Hepatocyte [19] = assay: Drug metabolism in rat hepatocytes assessed as (S)-2-(4-(trifluoromethylsulfonyloxy)phenyl)propanoic acid level at 10 uM after 60 mins; type: ADME, cell-based; conditions: 1 h
Hepatocyte [20] = assay: Drug metabolism in rat hepatocytes assessed as (S)-2-(4-(trifluoromethylsulfonyloxy)phenyl)propanoic acid level at 10 uM after 90 mins; type: ADME, cell-based; conditions: 1.5 h
Hepatocyte [21] = assay: Metabolic stability in human hepatocytes assessed as compound remaining at 10 uM after 60 mins; type: ADME, cell-based; conditions: 1 h
Hepatocyte [22] = assay: Metabolic stability in rat hepatocytes assessed as compound remaining at 10 uM after 90 mins; type: ADME, cell-based; conditions: 1.5 h
Hepatocyte [23] = assay: Metabolic stability in rat hepatocytes assessed as compound remaining at 10 uM after 30 mins; type: ADME, cell-based; conditions: 0.5 h
Hepatocyte [24] = assay: Drug metabolism in rat hepatocytes assessed as (S)-2-(4-(trifluoromethylsulfonyloxy)phenyl)propanoic acid level at 10 uM after 15 mins; type: ADME, cell-based; conditions: 0.25 h
Hepatocyte [25] = assay: Drug metabolism in rat hepatocytes assessed as (S)-2-(4-(trifluoromethylsulfonyloxy)phenyl)propanoic acid level at 10 uM after 30 mins; type: ADME, cell-based; conditions: 0.5 h
Hepatocyte [26] = assay: Drug metabolism in human hepatocytes assessed as (S)-2-(4-(trifluoromethylsulfonyloxy)phenyl)propanoic acid level at 10 uM after 120 mins; type: ADME, cell-based; conditions: 2 h
Hepatocyte [27] = assay: Metabolic stability in human hepatocytes assessed as compound remaining at 10 uM after 15 mins; type: ADME, cell-based; conditions: 0.25 h
[28] = Chemical stability of the compound assessed as compound remaining at pH 9 after 2 hrs; type: physicochemical; conditions: buffer, read-out: Stability
Hepatocyte [29] = assay: Metabolic stability in human hepatocytes assessed as compound remaining at 10 uM after 90 mins; type: ADME, cell-based; conditions: 1.5 h
[30] = Elimination half life in Sprague-Dawley rat at 14 mg/kg, iv; type: ADME, organism-based; set-up: dose 14 mg/kg, route intravenous; conditions: in vivo, read-out: beta t1/2 (converted)

inhibition [1]: 49%
inhibition [2]: 50%
remaining at 2 h [3]: > 98%
remaining at 1 h, 1 µM [4]: 85%
half-life [5]: < 60 min
remaining at 0.5 h, 1 µM [6]: 87%
SMILES: C[C@@H](C(=O)NO)c1ccc(OS(=O)(=O)C(F)(F)F)cc1

inhibition [1]: 50%
inhibition at 10 µM (CYP2C19): 94%
inhibition [2]: 60%
inhibition at 10 µM (CYP2C9): 87%
inhibition at 10 µM (CYP1A2): < 5%
inhibition at 10 µM (CYP2D6): 38%
inhibition at 10 µM (CYP3A4): 82%
SMILES: C[C@@H](C(=O)Nc1nc(C(F)(F)F)co1)c1ccc(OS(=O)(=O)C(F)(F)F)cc1

inhibition [1]: 46%
inhibition [2]: 56%
remaining at 2 h [3]: > 98%
remaining at 1 h, 1 µM [4]: 90%
half-life [5]: < 60 min
remaining at 0.5 h, 1 µM [6]: 65%
SMILES: CONC(=O)[C@H](C)c1ccc(OS(=O)(=O)C(F)(F)F)cc1

inhibition [1]: 45%
inhibition [2]: 44%
SMILES: C[C@@H](C(=O)NS(=O)(=O)C1CC1)c1ccc(OS(=O)(=O)C(F)(F)F)cc1

inhibition [1]: 65%
inhibition [2]: 58%
remaining at 0.5 h, 1 µM [6]: 75%
SMILES: CC(C)NC(=O)[C@H](C)c1ccc(OS(=O)(=O)C(F)(F)F)cc1

inhibition [1]: 45%
inhibition at 10 µM (CYP2C19): 21%
inhibition [2]: 44%
inhibition at 10 µM (CYP2C9): < 5%
inhibition at 10 µM (CYP1A2): < 5%
inhibition at 10 µM (CYP2D6): < 5%
inhibition at 10 µM (CYP3A4): 8%
SMILES: C[C@@H](C(=O)Nc1nnc[nH]1)c1ccc(OS(=O)(=O)C(F)(F)F)cc1

Stability (Hepatocyte [7]): 2839 ng/mL
Drug metabolism (Hepatocyte [8]): 870 ng/mL
remaining at 2 h [9]: > 99%
Drug metabolism (Hepatocyte [10]): 84 ng/mL
Drug metabolism (Hepatocyte [11]): 21 ng/mL
inhibition [1]: 63%
inhibition at 10 µM (CYP2C19): < 5%
inhibition [2]: 62%
inhibition at 10 µM (CYP2C9): < 5%
inhibition at 10 µM (CYP1A2): < 5%
remaining at 2 h [3]: > 99%
Drug metabolism (Hepatocyte [12]): 240 ng/mL
Stability (Hepatocyte [13]): 2287 ng/mL
remaining at 1 h, 1 µM [4]: 100%
Stability (Hepatocyte [14]): 2541 ng/mL
Stability (Hepatocyte [15]): 1946 ng/mL
Drug metabolism (Hepatocyte [16]): 260 ng/mL
Stability (Hepatocyte [17]): 2844 ng/mL
pKa [18]: 4
Drug metabolism (Hepatocyte [19]): 449 ng/mL
Drug metabolism (Hepatocyte [20]): 664 ng/mL
Stability (Hepatocyte [21]): 2696 ng/mL
Stability (Hepatocyte [22]): 2167 ng/mL
Stability (Hepatocyte [23]): 2541 ng/mL
Drug metabolism (Hepatocyte [24]): 117 ng/mL
Drug metabolism (Hepatocyte [25]): 210 ng/mL
inhibition at 10 µM (CYP2D6): < 5%
Drug metabolism (Hepatocyte [26]): 330 ng/mL
Stability (Hepatocyte [27]): 2932 ng/mL
remaining at 2 h [28]: 30%
Stability (Hepatocyte [29]): 2620 ng/mL
inhibition at 10 µM (CYP3A4): < 5%
SMILES: C[C@@H](C(=O)O)c1ccc(OS(=O)(=O)C(F)(F)F)cc1

inhibition [1]: 22%
inhibition [2]: 68%
half-life [30]: 45 min
SMILES: CC(C)Cc1ccc([C@@H](C)C(=O)NS(C)(=O)=O)cc1 [REPARIXIN]

inhibition [1]: 38%
inhibition [2]: 49%
remaining at 1 h, 1 µM [4]: 85%
remaining at 0.5 h, 1 µM [6]: 75%
SMILES: CC(C)ONC(=O)[C@H](C)c1ccc(OS(=O)(=O)C(F)(F)F)cc1

inhibition [1]: 48%
inhibition [2]: 44%
SMILES: C[C@@H](C(=O)Nc1nnco1)c1ccc(OS(=O)(=O)C(F)(F)F)cc1

inhibition [1]: 55%
inhibition at 10 µM (CYP2C19): 87%
inhibition [2]: 56%
inhibition at 10 µM (CYP2C9): 53%
inhibition at 10 µM (CYP1A2): 36%
inhibition at 10 µM (CYP2D6): 26%
inhibition at 10 µM (CYP3A4): 52%
SMILES: C[C@@H](C(=O)Nc1nccs1)c1ccc(OS(=O)(=O)C(F)(F)F)cc1
